Test results taken from patent US20220265723A1, “NON-VIRAL MODIFICATION OF MESENCHYMAL STEM CELLS” (NATIONAL UNIVERSITY OF SINGAPORE, priority 2019, published 2022).
Where two headings read alike, the source gives them in different places.

How the values were obtained:
[1] = cited from earlier work; for Potential of activation (fold): per enzyme/prodrug system
[2] = test system: prodrug-activating enzyme of each system: CA, CD, CPG2, Cyt-450, dCK, HSV-TK, NR, PNP, TP, VZV-TK; settings: systems: CA/CPT-11, CD/5-FC, CPG2/CMDA, Cyt-450/CP, IF, dCK/ara-C, HSV-TK/GCV, ACV, NR/CB1954, PNP/6-MePdR, TP/5′-DFUR, VZV-TK/ara-M; read-out: KM (S0.5); cited from earlier work
[3] = systems: CA/CPT-11, CD/5-FC, CPG2/CMDA, CJS278, Cyt-450, dCK/ara-C, HSV-TK, NR/CB1954, PNP/6-MePdR, TP/5′-DFUR, VZV-TK/ara-M, XGPRT/6-TX, 6-TG; cited from earlier work
CDy::UPRT_AT-MSCs = assay: Sensitivity of modified AT-MSCs to 5FC and 5FU, MTS assay; type: cell-based, human
Method: The cell viability at each time point was measured by standard MTS assay. At various time points, samples without 5FC treatment served as control. […] MTS assay were used to measure cell viability post treatment. Conditions without 5FU treatment was taken as 100%. Results were presented as mean±SD (n=4). […] Isotype antibodies served as respective controls. […] At the end of incubation, cells were stained with Alizarin red S. Calcium deposits stained with Alizarin red S were one of the phenotype indicating differentiated AT-MSCs. […] Fourteen days later, cells were stained with Oil Red-O. This dye stained for oil droplets visible in the cells, indicative of adipogenic differentiation. The images were captured at 20× magnification;
Quadruplicates of AT-MSC, MKN1, MKN45, MDA-MB-231 (10,000 cells per well) and U-251MG (4000 cells per well) for each treatment were plated into 96-well plates. […] One to five days later, plates were subjected to the CellTiter 96 Aqueous One Solution Cell Proliferation Assay (Promega). The colorimetric read out was measured spectrophotometrically at 490 nm. Results were expressed as the percentage of cell viability, in relative to cells in condition without 5-FC or 5-FU (set to 100%).

[4] = prodrug of the enzyme/prodrug system, read-out: Potency, IC50 (μM) Prodrug
[5] = active drug formed from the prodrug of the system, read-out: Potency, IC50 (μM) Drug

Row | Structure (SMILES) | IC50 [1, 4] | Km [2] | IC50 [1, 5] | Degree of activation (fold) [3] | other results
1 | O=P1(N(CCCl)CCCl)NCCCO1 (centres unmarked) [CP] | ~4000 µM | 300 µM |  |  | 
2 | Nc1nc(O)c2ncn(COC(CO)CO)c2n1 [GCV, ganciclovir] | 200 to 600 µM |  |  |  | 
3 | CS(=O)(=O)OCCN(CCCl)c1ccc(C(=O)O)cc1 [CMBA] |  |  | 8 to 65 µM |  | 
4 | NC(=O)c1cc(N2CC2)c([N+](=O)[O-])cc1[N+](=O)[O-] [CB1954] | > 1000 µM | 900 µM |  | 14-10,000 fold | Potential of activation (fold) [1]: >50,000 fold
5 | Cc1ncnc2c1ncn2[C@H]1C[C@H](O)[C@@H](CO)O1 [6-MePdR] | > 200 µM | 14 to 23 µM |  | 40 fold | Potential of activation (fold) [1]: 25-1,000 fold
6 | Nc1ccn([C@@H]2O[C@H](CO)[C@@H](O)[C@@H]2O)c(=O)n1 [ara-C] | 0.3 to 0.6 µM | 25.6 µM |  | 2-100 fold | 
7 | CS(=O)(=O)OCCN(CCCl)c1ccc(C(=O)N[C@@H](CCC(=O)O)C(=O)O)cc1 [CMDA] | 1700 to 3120 µM | 3.4 µM |  |  | 
8 | O=c1[nH]c(=S)c2[nH]cnc2[nH]1 [6-TX] | > 50 µM |  |  | 6-TX: >20; fold | 
9 | COc1ncnc2c1ncn2[C@@H]1O[C@H](CO)[C@@H](O)[C@@H]1O [ara-M] | > 2000 µM | 56 µM |  | 55-600 fold | Potential of activation (fold) [1]: >2,000 fold
10 | Cc1ncnc2nc[nH]c12 |  |  | 3.7 µM |  | 
11 | C[C@H]1O[C@@H](n2cc(F)c(=O)[nH]c2=O)[C@H](O)[C@@H]1O [5′-DFUR] | 17 µM | 325 to 433 µM |  | 165 fold | Potential of activation (fold) [1]: 7000 fold
12 | CCc1c2c(nc3ccc(OC(=O)N4CCC(N5CCCCC5)CC4)cc13)-c1cc3c(c(=O)n1C2)COC(=O)[C@]3(O)CC [CPT-11] | 1.6 to 8.1 µM |  |  |  | 
13 | Nc1nc(=S)c2[nH]cnc2[nH]1 [6-TG] | 0.5 µM |  |  | 6-TG: 10 fold | 
14 | O=c1[nH]cc(F)c(=O)[nH]1 [5FU, 5-fluorouracil] |  |  | 4 to 23.5 µM |  | susceptibility of CDy::UPRT_AT-MSCs versus unmodified AT-MSCs (CDy::UPRT_AT-MSCs; 100 μg/mL 5FU, 5 days): increased susceptibility of suicide effect
15 | CCc1c2c(nc3ccc(O)cc13)-c1cc3c(c(=O)n1C2)COC(=O)[C@]3(O)CC [SN-38] |  |  | 0.003 to 0.011 µM |  | 
16 | Nc1nc(=O)[nH]cc1F [5FC, 5-fluorocytosine] |  |  |  |  | cell viability of CDy::UPRT modified AT-MSCs (CDy::UPRT_AT-MSCs; 150 μg/mL 5FC, over time): reduced cell viability over time
17 | O=P1(NCCCl)OCCCN1CCCl (centres unmarked) [IF] | ~4000 µM | 480 µM |  |  | 
18 | O=c1[nH]c(=O)n([C@H]2C[C@H](O)[C@@H](CO)O2)cc1F [5-FUdR] |  |  | 0.0023 µM |  | 
19 | COc1cccc2c1C(=O)c1c(O)c3c(c(O)c1C2=O)C[C@@](O)(C(=O)CO)C[C@@H]3O[C@H]1C[C@H](N)[C@H](O)[C@H](C)O1 [Doxorubicin] |  |  | 0.012 µM | 11 fold | Potential of activation (fold) [1]: 21 fold
